Measured values published in patent publication US20100056623A1, “FUMAGILLOL DERIVATIVES OR METHOD FOR PREPARATION OF FUMAGILLOL DERIVATIVES, AND PHARMACEUTICAL COMPOSITIONS COMPRISING THE SAME” (CHONG KUN DANG PHARMACEUTICAL CORP., priority 2005, published 2010).
Read-outs that look alike come from different tables or passages of the source.

Key:
[1] = tested on: CPAE (calf pulmonary artery endothelial cell); experiment: Inhibiting activity on cell proliferation, SRB analysis (CPAE); assay type: cell-based; settings: for IC50: CPAE cells, 3 days with drug, SRB, read-out: IC50 (nM) CAPE; for Selectivity Index (L5178Y/CAPE): IC50 L5178Y / IC50 CPAE
Experimental: (§1) In order to compare the safety index (SI) of CPAE (calf pulmonary artery endothelial cell) with that of HUVEC (human umbilical vein endothelial cell), L5178Y lymphoma that was isolated from murine thymus was used. The safety index was defined as IC50 ratio of L5178Y against CPAE (IC50L5178Y/IC50CPAE). All cell lines, which had been kept in liquid nitrogen tank, were used after being thawed and subcultured 2˜3 times in T-flask. CPAE, HUVEC and L5178Y were cultured in MEM culture medium (20% FBS, 50˜100 μg/ml ECGS, 0.15% baking soda, 0.05 mg/ml gentamicin), M199 culture medium (20% FBS, 0.22% baking soda, 100 μg/ml heparin, 3 ng/ml bFGF, 0.05 mg/ml gentamicin) and RPMI 1640 culture medium (10% FBS, 0.2% baking soda, 0.05 mg/ml gentamicin), respectively, under the condition of 37° C. and 5% CO2.
(§2) The drug was prepared by being gradationally diluted to two or ten times by using PBS, 20 μl of the solution was added to each well of 96 well plate in triplicate. The cell, which is being incubated, was treated with trypsin to give cell suspension. The number of cell thereafter was counted. And 180 μl of the solution was inoculated to each well and cultured.
(§3) The cell was cultured with drugs for 3 days and then 50 μl of 50% TCA was added thereto (final concentration 10%). Subsequently the cell was fixed by being left alone at 4° C. for 1 hour. The well was washed 4 times by distilled water and then dried. After that 100 μl of SRB (Sulforhodamine B, Sigma Chemical Co.) solution (0.4% w/v in 1% acetic acid) was added thereto and then it was left alone at ordinary temperature for 30 minutes. Thereafter the well was washed 4 times by 1% acetic acid and dried. And then after adding 200 μl of 10 mM tris buffer, the absorbance at 570 nm was measured by automatic microplate reader (Model: Elx 808, Bio-Tek Instrument, INC). The viability was calculated from the ratio of the absorbance of the control to which drugs were not added and the well to which drugs were added.

[2] = tested on: HUVEC (human umbilical vein endothelial cell); experiment: Inhibiting activity on cell proliferation, SRB analysis (HUVEC); assay type: cell-based; settings: Homo sapiens, 72 h, HUVEC cells, 3 days with drug
Experimental: as §1, §2, §3

L5178Y lymphoma = experiment: Inhibiting activity on cell proliferation, MTT analysis (L5178Y); assay type: cell-based, murine; settings: L5178Y lymphoma cells, 3 days with drug
Experimental: as §1, §2
The tumor cell was cultured with drugs for 3 days and then 50 μl of MTT (3-(4,5-dimethylthiazole-2-yl)-2,5-diphenyl tetrazolium bromide, Sigma Chemical Co.) solution (2.5 mg/ml in PBS) was added thereto. And it was further cultured for 4 hours at 37° C. Culture medium was removed carefully. And after dissolving formazan crystal by adding 150 μl of DMSO, the absorbance at 570 nm was determined.

Solubility test = assay type: physicochemical; settings: ordinary temperature
Experimental: To a constant amount (400 mg) of each compounds of present invention, a constant amount of demineralized water, methanol and ethanol were added separately, and the solution was stirred at ordinary temperature.

[3] = Chemical stability test (HPLC purity); settings: for change of purity (in words) / chemical stability compared to known compounds / 1 month Other peaks (%) / 1 month Parent peak (%): 1 month at 40±2° C.; for change of purity (in words) / chemical stability compared to known compounds / 1 month Other peaks (%) / 1 month Parent peak (%) / change of purity (%): 75±5% relative humidity; for 1 month Other peaks (%) / 1 month Parent peak (%) / Initial Other peaks (%) / Initial Parent peak (%): HPLC; for 1 month Other peaks (%) / 1 month Parent peak (%): air-tight vessel; for change of purity (%): initial vs 1 month at 40±2° C.
[4] = Bos taurus, Endothelial cell, 72 h

SMILES: CO[C@@H]1[C@H](OC(=O)/C=C/c2ccc(OCCCCCO)cc2)CC[C@]2(CO2)[C@H]1[C@@]1(C)O[C@@H]1CC=C(C)C [Example 23, O-(4-(5-hydroxypentoxy)cinnamoyl)fumagillol]
- IC50 [1, 4]: 0.0467 nM
- Selectivity Index (L5178Y/CAPE) [1]: 1.98 × 10^5
- IC50 [2]: 0.0057 nM
- IC50 (L5178Y lymphoma; Mus musculus, 72 h): 9250 nM

SMILES: CO[C@@H]1[C@H](OC(=O)/C=C/c2ccc(NCCOCCO)cc2)CC[C@]2(CO2)[C@H]1[C@@]1(C)O[C@@H]1CC=C(C)C [Example 16, O-(4-(2-hydroxyethoxyethylamino)cinnamoyl)fumagillol]
- IC50 [1, 4]: 0.041 nM
- Selectivity Index (L5178Y/CAPE) [1]: 2.31 × 10^5
- IC50 [2]: 0.0022 nM
- IC50 (L5178Y lymphoma; Mus musculus, 72 h): 9490 nM

SMILES: COc1ccc(/C=C/C(=O)O[C@@H]2CC[C@]3(CO3)[C@@H]([C@@]3(C)O[C@@H]3CC=C(C)C)[C@@H]2OC)cc1Oc1ccc(CO)cc1 [Example 11, O-(3-(4-hydroxymethylphenoxy)-4-methoxycinnamoyl)fumagillol]
- IC50 [1, 4]: 0.655 nM
- Selectivity Index (L5178Y/CAPE) [1]: 1.15 × 10^5
- IC50 [2]: 0.0036 nM
- IC50 (L5178Y lymphoma; Mus musculus, 72 h): 75000 nM

SMILES: CO[C@@H]1[C@H](OC(=O)/C=C/c2ccc(OCCOCCOCCO)cc2)CC[C@]2(CO2)[C@H]1[C@@]1(C)O[C@@H]1CC=C(C)C [Example 27, O-(4-(2-hydroxyethoxyethoxyethoxy)cinnamoyl)fumagillol]
- The amount of solvent to dissolve 1 g of the compounds (ml), demineralized water (Solubility test): 120 mL
- The amount of solvent to dissolve 1 g of the compounds (ml), ethanol (Solubility test): 50 mL
- The amount of solvent to dissolve 1 g of the compounds (ml), methanol (Solubility test): 30 mL
- IC50 [1, 4]: 0.089 nM
- Selectivity Index (L5178Y/CAPE) [1]: 1.18 × 10^5
- change of purity (in words) [3]: hardly showed a change of purity
- chemical stability compared to known compounds [3]: more excellent chemical stability than TNP-470, CKD-732 and CKD-731
- 1 month Other peaks (%) [3]: 1.6%
- 1 month Parent peak (%) [3]: 98.4%
- Initial Other peaks (%) [3]: 1.6%
- Initial Parent peak (%) [3]: 98.4%
- change of purity (%) [3]: 0%
- IC50 (L5178Y lymphoma; Mus musculus, 72 h): 10500 nM

SMILES: CO[C@@H]1[C@H](OC(=O)/C=C/c2ccc(Oc3ccc(CO)cc3)cc2)CC[C@]2(CO2)[C@H]1[C@@]1(C)O[C@@H]1CC=C(C)C [Example 8, O-(4-(4-hydroxymethylphenoxy)cinnamoyl)fumagillol]
- IC50 [1, 4]: 0.857 nM
- Selectivity Index (L5178Y/CAPE) [1]: 7.03 × 10^4
- IC50 [2]: 0.00456 nM
- IC50 (L5178Y lymphoma; Mus musculus, 72 h): 60200 nM

SMILES: CO[C@@H]1[C@H](OC(=O)/C=C/c2ccc(OCCCCCCO)cc2)CC[C@]2(CO2)[C@H]1[C@@]1(C)O[C@@H]1CC=C(C)C [Example 25, O-(4-(6-hydroxyhexyloxy)cinnamoyl)fumagillol]
- IC50 [1, 4]: 0.124 nM
- Selectivity Index (L5178Y/CAPE) [1]: 1.70 × 10^5
- IC50 [2]: 0.0015 nM
- IC50 (L5178Y lymphoma; Mus musculus, 72 h): 21100 nM

SMILES: CO[C@@H]1[C@H](OC(=O)/C=C/c2ccc(OCCCCCO)c([N+](=O)[O-])c2)CC[C@]2(CO2)[C@H]1[C@@]1(C)O[C@@H]1CC=C(C)C [Example 24, O-(3-nitro-4-(5-hydroxypentoxy)cinnamoyl)fumagillol]
- IC50 [1, 4]: 0.0946 nM
- Selectivity Index (L5178Y/CAPE) [1]: 1.10 × 10^5
- IC50 [2]: 0.0042 nM
- IC50 (L5178Y lymphoma; Mus musculus, 72 h): 10400 nM

SMILES: CO[C@@H]1[C@H](OC(=O)/C=C/c2ccc(OCCCCO)cc2)CC[C@]2(CO2)[C@H]1[C@@]1(C)O[C@@H]1CC=C(C)C [Example 21, O-(4-(4-hydroxybutoxy)cinnamoyl)fumagillol]
- The amount of solvent to dissolve 1 g of the compounds (ml), demineralized water (Solubility test): 150 mL
- The amount of solvent to dissolve 1 g of the compounds (ml), ethanol (Solubility test): 97 mL
- The amount of solvent to dissolve 1 g of the compounds (ml), methanol (Solubility test): 70 mL
- IC50 [1, 4]: 0.029 nM
- Selectivity Index (L5178Y/CAPE) [1]: 8.90 × 10^5
- change of purity (in words) [3]: hardly showed a change of purity
- chemical stability compared to known compounds [3]: more excellent chemical stability than TNP-470, CKD-732 and CKD-731
- 1 month Other peaks (%) [3]: 1.1%
- 1 month Parent peak (%) [3]: 98.9%
- Initial Other peaks (%) [3]: 1.0%
- Initial Parent peak (%) [3]: 99.0%
- change of purity (%) [3]: 0.1%
- IC50 (L5178Y lymphoma; Mus musculus, 72 h): 25800 nM

SMILES: CO[C@@H]1[C@H](OC(=O)/C=C/c2ccc(OCCO)cc2)CC[C@]2(CO2)[C@H]1[C@@]1(C)O[C@@H]1CC=C(C)C [Example 1, O-(4-(2-hydroxyethoxy)cinnamoyl)fumagillol]
- The amount of solvent to dissolve 1 g of the compounds (ml), demineralized water (Solubility test): 135 mL
- The amount of solvent to dissolve 1 g of the compounds (ml), ethanol (Solubility test): 55 mL
- The amount of solvent to dissolve 1 g of the compounds (ml), methanol (Solubility test): 34 mL
- IC50 [1, 4]: 0.0025 nM
- Selectivity Index (L5178Y/CAPE) [1]: 6.22 × 10^6
- effect compared to CKD-731 against CPAE ([1]; relative to CKD-731): equivalent or not smaller than twice effect of CKD-731
- change of purity (in words) [3]: hardly showed a change of purity
- chemical stability compared to known compounds [3]: more excellent chemical stability than TNP-470, CKD-732 and CKD-731
- 1 month Other peaks (%) [3]: 0.6%
- 1 month Parent peak (%) [3]: 99.4%
- Initial Other peaks (%) [3]: 0.6%
- Initial Parent peak (%) [3]: 99.4%
- change of purity (%) [3]: 0%
- IC50 (L5178Y lymphoma; Mus musculus, 72 h): 15500 nM

SMILES: CO[C@@H]1[C@H](OC(=O)/C=C/c2cccc(NCCOCCO)c2)CC[C@]2(CO2)[C@H]1[C@@]1(C)O[C@@H]1CC=C(C)C [Example 17, O-(3-(2-hydroxyethoxyethylamino)cinnamoyl)fumagillol]
- IC50 [1, 4]: 0.049 nM
- Selectivity Index (L5178Y/CAPE) [1]: 6.26 × 10^5
- IC50 [2]: 0.00302 nM
- IC50 (L5178Y lymphoma; Mus musculus, 72 h): 30700 nM

SMILES: CO[C@@H]1[C@H](OC(=O)/C=C/c2ccc(Cl)c(NCCOCCO)c2)CC[C@]2(CO2)[C@H]1[C@@]1(C)O[C@@H]1CC=C(C)C [Example 18, O-(4-chloro-3-(2-hydroxyethoxyethylamino)cinnamoyl)fumagillol]
- IC50 [1, 4]: 0.045 nM
- Selectivity Index (L5178Y/CAPE) [1]: 9.31 × 10^5
- IC50 [2]: 0.0019 nM
- IC50 (L5178Y lymphoma; Mus musculus, 72 h): 41900 nM

SMILES: COc1cc(C=CC(=O)OC2CCC3(CO3)C(C3(C)OC3CC=C(C)C)C2OC)cc(OC)c1OC (centres unmarked) [CKD-731, O-(3,4,5-trimethoxycinnamoyl)fumagillol, reference compound]
- The amount of solvent to dissolve 1 g of the compounds (ml), demineralized water (Solubility test): 1567 mL
- The amount of solvent to dissolve 1 g of the compounds (ml), ethanol (Solubility test): 372 mL
- The amount of solvent to dissolve 1 g of the compounds (ml), methanol (Solubility test): 350 mL
- IC50 [1]: 0.0044 nM
- 1 month Other peaks (%) [3]: 2.9%
- 1 month Parent peak (%) [3]: 97.1%
- Initial Other peaks (%) [3]: 1.1%
- Initial Parent peak (%) [3]: 98.9%
- change of purity (%) [3]: 1.8%
- IC50 (L5178Y lymphoma): 58200 nM

SMILES: CO[C@@H]1[C@H](OC(=O)/C=C/c2ccc(OCCCCCCO)c(C(F)(F)F)c2)CC[C@]2(CO2)[C@H]1[C@@]1(C)O[C@@H]1CC=C(C)C [Example 26, O-(3-trifluoromethyl-4-(6-hydroxyhexyloxy)cinnamoyl)fumagillol]
- IC50 [1, 4]: 0.677 nM
- Selectivity Index (L5178Y/CAPE) [1]: 1.48 × 10^4
- IC50 [2]: 0.0019 nM
- IC50 (L5178Y lymphoma; Mus musculus, 72 h): 9990 nM
